Results taken from patent US20110218172A1, “COMPOSITION FOR DOWN-REGULATING PRO-INFLAMMATORY MARKERS” (priority 2010, published 2011).

Legend:
[1] = system: Mycobacterium tuberculli induced inflammatory arthritis in rats (injected paw); assay: Adjuvant-induced developing inflammatory arthritis (prophylactic), injected paw oedema; assay type: in vivo, Wistar rats; details: 100 mg/kg oral once daily, day 14, injected paw
Description: Wistar rats, 12-14 weeks old, 140-160 g body weight in groups of 6 were employed in the study. All the animals were maintained in plastic cages at 22±2° C. with 12 h light/dark cycle and free access to pellet food and water. Test materials were administered orally once a day for the duration of the experiment. In all the experiments, a control group was maintained (vehicle administered) whilst the other group received a standard drug acetylsalicylic acid (ASA) administered once daily for comparison and authenticity/credibility of the test. The entire study was carried out after approval from Institutional Animal Ethics Committee and all the animals used in experimental work received humane care. The mean and standard error (S.E.) of the mean for each group was calculated and the results were expressed as percent inhibition compared to control group. The significance was determined statistically by applying Student's t-test.
Adjuvant arthritis was induced by the sub-plantar injection of 0.05 ml freshly prepared suspension (5.0 mg/ml) of steam killed Mycobacterium tuberculosis in liquid paraffin [Newbould BB. Chemotherapy of arthritis induced in rats by mycobacterial adjuvant. Br J Pharmacol 1963; 21:127-36]. The volume of the injected paws was quantitated before and on day 14th after the adjuvant injection and was measured by a volume differential meter model LE 7500N, Panlab, Spain.

[2] = system: intracellular TNF-α in murine neutrophils; assay: Intracellular in vitro TNF-α estimation in LPS-stimulated murine neutrophils (flow cytometry); assay type: cell-based; details: 100 μg/ml, 3 h
Description: Cells were stimulated with LPS and incubated with test materials at graded concentrations (μg/ml) for 3 hours, in a CO2 incubator. The permeabilising solution was added to the cells and then these were incubated for 10 min. The cells were then labeled with conjugated anti-mouse TNF-α monoclonal antibody and further incubation of 30 min. duration was carried out in dark. After washing with Phosphate buffered saline, the samples were acquired directly on BD-Cantoll Flowcytometer (Beckton-Dickinson Biosciences, CA, USA). A fluorescence trigger was set on the FL1 parameter of the gated neutrophils populations (10,000 events) and fluorescence compensation, data analysis and data presentation was performed using Cell Quest Pro software. [Clara, B., R. C. Arancha, G. M. Andre's, P. Atanasio, A. Julia, and O. Alberto. 2003. A new method for detecting TNF-α-secreting cells using direct immunofluorescence surface membrane stainings. J. Immuno. Methods 264:77-87.][Khurshid A. Bhat, Bhahwal A. Shah, Kuldeep K. Gupta, Anjali Pandey, Sarang Bani, Subhash C. Taneja. Semi-synthetic analogs of pinitol as potential inhibitors of TNF-a cytokine expression in human neutrophils. Bioorganic & Medicinal Chemistry Letters 19 2009, 1939-1943].

Compound | Oedema Mean ± S.E. [1] | inhibition at 100 mg/kg ([1]; Mycobacterium, 336 h, read-out: Percentage Activity Against Arthritic Control (↓ percent inhibition)) | % TNF-alpha expression against LPS control (↓ decrease) [2] | intracellular TNF-α expression Mean ± S.E ([2]; n=3)
CC(=O)Oc1ccccc1C(=O)O [ASA, Acetylsalicylic acid] | 1.82 ± 0.17 mm | 37% | – | –
COc1ccc(C2CNC(=O)C2)cc1OC1CCCC1 (stereo not shown) [Rolipram] | – | – | 71.48↓ % | 0.71 ± 0.04
